Experimental findings from patent US20050176775A1, “Substituted pyridinones” (priority 2003, published 2005) are described below.

pIC50: −log10 of the molar value. Bounds are passed on as bounds.

T1 sequence (Q16539 whole entry): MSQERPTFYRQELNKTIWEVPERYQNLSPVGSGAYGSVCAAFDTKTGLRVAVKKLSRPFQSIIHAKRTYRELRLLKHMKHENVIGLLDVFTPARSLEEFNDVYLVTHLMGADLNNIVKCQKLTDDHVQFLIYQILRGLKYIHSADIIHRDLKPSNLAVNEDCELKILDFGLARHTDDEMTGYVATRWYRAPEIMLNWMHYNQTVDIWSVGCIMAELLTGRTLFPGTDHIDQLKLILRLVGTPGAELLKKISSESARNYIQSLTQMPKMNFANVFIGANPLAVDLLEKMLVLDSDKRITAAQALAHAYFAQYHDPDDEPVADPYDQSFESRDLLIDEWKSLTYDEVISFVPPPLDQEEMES

One series addresses T1, human p38 kinase alpha (Homo sapiens, UniProt Q16539).
T1 construct: made in house; host or cells: E. coli DH10B
The series is described as follows: p38 alpha kinase assay (PHAS-I / 32P-ATP format or EGFRP / 33P-ATP format). Conditions: inhibition of activated human p38 kinase alpha; the text does not say which of the two in vitro formats was used. The class given is biochemical. As for the experimental part: The ability of compounds to inhibit human p38 kinase alpha was evaluated using two in vitro assay methods. In the first method, activated human p38 kinase alpha phosphorylates a biotinylated substrate, PHAS-I (phosphorylated heat and acid stable protein-insulin inducible), in the presence of gamma ^32P-ATP (^32P-ATP). PHAS-I was biotinylated prior to the assay and provides a means of capturing the substrate, which is phosphorylated during the assay. p38 Kinase was activated by MKK6. Compounds were tested in 10 fold serial dilutions over the range of 100 μM to 0.001 μM using 1% DMSO. Each concentration of inhibitor was tested in triplicate.
All reactions were carried out in 96 well polypropylene plates. Each reaction well contained 25 mM HEPES pH 7.5, 10 mM magnesium acetate and 50 μM unlabeled ATP. […] Activated human p38 kinase alpha was used at 1 μg per 50 μl reaction volume representing a final concentration of 0.3 μM. […]
Following incubation, 20 μl of reaction mixture was transferred to a high capacity streptavidin coated filter plate (SAM-streptavidin-matrix, Promega) prewetted with phosphate buffered saline. […] The plates were sealed and counted.
Compounds were tested in 10 fold serial dilutions over the range of 100 μM to 0.001 μM in 1% DMSO. […] 150 μl of Microscint 40 was then added to each well of the Microlite plate, and the plate was sealed, mixed, and counted.
`Cc1ccc(C(N)=O)cc1-n1c(C)cc(OCc2ccc(F)cc2F)c(Br)c1=O` (single isomer, unassigned) [Example 736, (+)-3-[3-bromo-4-[(2,4-difluorobenzyl)oxy]-6-methyl-2-oxopyridin-1(2H)-yl]-4-methylbenzamide] showed a negative logarithm of the IC50 (pIC50) above 6.00.
On the same count and under the same terms, the value for `Cc1c(/C=N/O)c(OCc2ccc(F)cc2F)c(Br)c(=O)n1-c1c(F)cccc1F` [Example 565, 5-bromo-4-[(2,4-difluorobenzyl)oxy]-1-(2,6-difluorophenyl)-2-methyl-6-oxo-1,6-dihydropyridine-3-carbaldehyde Oxime] was 4.00 to 4.60.

Tested on in a further series: not given
Assay: not given
Settings: not given
The compound `Cc1ccc(COc2ccn(Cc3ccccc3)c(=O)c2Br)cc1` [Example 44, 1-benzyl-3-bromo-4-[(4-methylbenzyl)oxy]pyridin-2(1H)-one] displayed a melting point of 149 to 149.7 °C.
On the same count and under the same terms, as for `O=c1c(Br)c(OCc2ccc(F)c(F)c2)ccn1Cc1cccc(F)c1` [Example 112, 3-bromo-4-(3,4-difluorobenzyloxy)-1-(3-fluorobenzyl)-1H-pyridin-2-one], the figure is 172 to 174 °C; as for `NCc1cccc(Cn2ccc(OCc3ccc(F)cc3F)c(Br)c2=O)c1F` [Example 104, 1-(3-aminomethyl-2-fluorobenzyl)-3-bromo-4-(2,4-difluorobenzyloxy)-1H-pyridin-2-one], 160 to 163 °C.
The same measure, in the same setting: the value for `COC(=O)c1ccc(Cn2ccc(OCc3ccc(F)cc3F)c(Br)c2=O)cc1` [Example 101, Methyl 4-[3-Bromo-4-(2,4-difluorobenzyloxy)-2-oxo-2H-pyridin-1-ylmethyl]-benzoate] was 136 to 139 °C; that for `COC(=O)c1cccc(Cn2ccc(OCc3ccc(F)cc3F)c(Cl)c2=O)c1F` [Example 105, Methyl 3-[3-chloro-4-(2,4-difluorobenzyloxy)-2-oxo-2H-pyridin-1-ylmethyl]-2-fluoro-benzoate] was 171 to 174 °C; that for `CN(C)Cc1cccc(Cn2ccc(OCc3ccc(F)cc3F)c(Br)c2=O)c1` [Example 76, 3-bromo-4-(2,4-difluorobenzyloxy)-1-[(3-dimethylaminomethyl)benzyl]-1H-pyridin-2-one] was 103 to 107 °C.
Compound `Cc1c(OCc2ccc(F)cc2F)ccn(Cc2cccc(F)c2)c1=O` [Example 129, 4-(2,4-Difluorobenzyloxy)-1-(3-fluorobenzyl)-3-methyl-1H-pyridin-2-one] had a melting point of 127 to 129 °C.
Same read-out and setting: the value for `NC(=NO)c1ccc(Cn2ccc(OCc3ccccc3)c(Br)c2=O)cc1` [Example 24, 4-{[4-(benzyloxy)-3-bromo-2-oxopyridin-1(2H)-yl]methyl}-N′-hydroxybenzenecarboximidamide] was 210.2 to 212.2 °C; that for `CCOC(=O)Cc1cccc(Cn2ccc(OCc3ccc(F)cc3F)c(Br)c2=O)c1` [Example 127, Ethyl {3-[3-Bromo-4-(2,4-difluorobenzyloxy)-2-oxo-2H-pyridin-1-ylmethyl]-phenyl}acetate] was 95 to 98 °C; that for `NCc1cccc(Cn2ccc(OCc3ccc(F)cc3)c(Br)c2=O)c1.O=C(O)C(F)(F)F` was 127 to 139 °C.
As to `NC(=O)Cc1ccccc1Cn1ccc(OCc2ccc(F)cc2F)c(Br)c1=O` [Example 126, 2-{2-[3-Bromo-4-(2,4-difluorobenzyloxy)-2-oxo-2H-pyridin-1-ylmethyl]-phenyl}acetamide], the melting point was 178 to 183 °C.
With `NC(=O)c1ccc(Cn2ccc(OCc3ccc(F)cc3F)c(Br)c2=O)cc1` [Example 103, 4-[3-bromo-4-(2,4-difluorobenzyloxy)-2-oxo-2H-pyridin-1-ylmethyl]benzamide], the melting point fell in the range of 235 to 238 °C.
On the same count and under the same terms, as for `O=c1c(Cl)c(OCc2ccc(F)cc2F)ccn1Cc1ccc2[nH]ccc2c1` [Example 86, 3-chloro-4-(2,4-difluorobenzyloxy)-1-(1H-indol-5-ylmethyl)-1H-pyridin-2-one], the figure is 152 to 153 °C; as for `O=c1cc(OCc2cccc(Cl)c2)ccn1Cc1ccccc1` [Example 45, 1-benzyl-4-[(3-chlorobenzyl)oxy]pyridin-2(1H)-one], 95.5 to 95.7 °C; as for `CS(=O)(=O)c1ccc(Cn2ccc(OCc3ccc(F)cc3F)c(Cl)c2=O)cc1` [Example 82, 3-chloro-4-(2,4-difluorobenzyloxy)-1-[(4-methanesulfonyl)benzyl]-1H-pyridin-2-one], 223 to 225 °C.
Same read-out and setting: the value for `O=c1c(Br)c(SCc2ccccc2)ccn1Cc1ccccc1` [Example 46, 1-benzyl-4-[benzylthio]-3-bromopyridin-2(1H)-one] was 180.6 to 182.1 °C; that for `Cc1ccc(Cn2ccc(OCc3ccccc3)c(Br)c2=O)cc1` [Example 2, 4-(benzyloxy)-3-bromo-1-(4-methylbenzyl)pyridin-2(1H)-one] was 150.4 to 151.2 °C.
On the same count and under the same terms, as for `O=c1c(Cl)c(OCc2ccc(F)cc2F)ccn1Cc1cccc2c1CCNC2` [Example 85, 3-chloro-4-(2,4-difluorobenzyloxy)-1-(1,2,3,4-tetrahydroisoquinolin-5-ylmethyl)-1H-pyridin-2-one], the figure is 180 to 184 °C; as for `O=c1c(Br)c(OCc2ccccc2)ccn1CCc1ccsc1` [Example 29, 4-(benzyloxy)-3-bromo-1-(2-thien-3-ylethyl)pyridin-2(1H)-one], 134 to 134.3 °C.
